Holding throughout (assay): DTP human tumour cell line panel, 48 h
The test system of experiment [1] is ACHN renal.
In experiment [2] the test system is COLO 205 colon.
For experiment [3], the system named is HL-60(TB) leukemia.
Experiment [4] relates to HT29 colon.
The test system of experiment [5] is MALME-3M melanoma.
Experiment [6] relates to NCI-H23 lung.
The subject of experiment [7] is NCI-H460 lung.
The test system of experiment [8] is OVCAR-4 ovarian.
For experiment [9], the system named is SNB-75 CNS.
The test system of experiment [10] is UACC-257 melanoma.

The values below come from PubChem BioAssay (NCI).

The term TGI denotes the concentration giving total growth inhibition. A lower TGI goes with more potent growth arrest.

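Tested at 5 concentrations; 48 h exposure; 96-well plates; endpoints linearly interpolated, else capped at highest concentration. At the TGI there is no net growth.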 Bounds are passed on as bounds.

`COc1nc(C#CC2CCCCC2)nc(OC)n1`: the TGI in experiment [1] is 17.5 µM; in experiment [2], 53.5 µM; in experiment [3] it was 26 µM; in experiment [4], over 100 µM; in experiment [5] it was 6.49 µM; in experiment [6], 8.6 µM. For the same molecule, the concentration for total growth inhibition (TGI) amounted to 26.6 µM in [7], 27.3 µM in experiment [8], 27.6 µM in [9] and 23.5 µM in [10].

As to `O=C(Nc1nn[nH]n1)c1nc(-c2ccccc2)cc(=O)[nH]1`, the TGI in experiment [1], in experiment [2], in experiment [3], in experiment [4], in experiment [5] and in experiment [6] was over 100 µM each time. The total growth inhibition concentration (TGI) in [7], in experiment [8], in experiment [9] and in experiment [10] was over 100 µM throughout.

On to `N#Cc1c(N)nc2c3c1NC(=O)C(C(N)=O)C3c1ccccc1O2` (centres undefined), for which the TGI in experiment [1], in experiment [2], in experiment [3], in experiment [4], in experiment [5] and in experiment [6] was over 100 µM throughout. Further, the TGI in [7], in experiment [8], in experiment [9] and in [10] was over 100 µM in each case.

`CC(C)=CCC[C@@H](C)C1=C(O)C(Nc2ccccc2I)=C(C)C(=O)C1=O`: the TGI in [1] turned out to be 44 µM; in experiment [2] it was 33.1 µM; in experiment [3], 4.39 µM; in [4], 28 µM; in [5], 29.8 µM; in experiment [6] it was 38.9 µM. Further, the total growth inhibition concentration (TGI) in [7] was over 75 µM; in [8], over 75 µM; in experiment [9], 37.1 µM; in experiment [10] it was 74.3 µM.

On to `O=C(O)c1ccccc1C1c2ccccc2Oc2ccccc21`, for which the total growth inhibition concentration (TGI) in [1], in experiment [3], in experiment [4], in experiment [5], in experiment [6] and in experiment [7] was over 100 µM throughout. Moreover, the TGI in experiment [8] is over 100 µM; in [9], 85.8 µM; in experiment [10], over 100 µM.

Turning to `CC(=O)C(C)(C)CCC(C)(C)C(C)=O`, the total growth inhibition concentration (TGI) in experiment [1], in [2], in [3], in experiment [4], in experiment [5] and in experiment [6] was over 100 µM throughout. The TGI in experiment [7], in experiment [8], in [9] and in experiment [10] was over 100 µM each time.

As for `O=[Se](O)O`, the total growth inhibition concentration (TGI) in experiment [1] is 76.6 µM; in experiment [2], over 60.3 µM; in experiment [3], over 100 µM; in experiment [4], over 91.8 µM; in experiment [5], over 100 µM; in experiment [6], over 94.4 µM. The total growth inhibition concentration (TGI) in experiment [7] is over 49.9 µM; in experiment [8], 21.1 µM; in experiment [9], 7.55 µM; in experiment [10], over 100 µM.

For the molecule `CC1(C)CC[C@]2(C(=O)O)CC[C@]3(C)[C@H](C(=O)C=C4[C@@]5(C)C=C(C#N)C(=O)C(C)(C)[C@@H]5CC[C@]43C)[C@@H]2C1`, the TGI amounted to 4.47 µM in [1]; 1.49 µM in [2]; 11.4 µM in experiment [3]; 6.43 µM in experiment [4]; 1.55 µM in experiment [5]; 0.628 µM in experiment [6]. Besides, the TGI was 22.2 µM in experiment [7], 23.2 µM in experiment [8], 2.84 µM in experiment [9] and 2.84 µM in [10].

Regarding `O=C1C2C=CC(n3[nH]c(=O)n(Cc4ccccc4)c3=O)CC2C(=O)N1c1ccc(Br)cc1` (centres undefined), the TGI in experiment [1], in experiment [2], in [3], in experiment [4], in experiment [5] and in [6] was over 100 µM throughout. In addition, the TGI in [7], in experiment [8], in experiment [9] and in [10] was over 100 µM throughout.

As to `O=C(N=Nc1ccccc1Cl)NNc1ccccc1Cl`, the TGI in [1] is 92.6 µM; in [3] it was 44.9 µM; in experiment [4] it was over 100 µM; in [5] it was over 100 µM; in experiment [6], over 100 µM; in experiment [7], over 100 µM. Further, the TGI in experiment [8] is 58.5 µM; in [9] it was over 100 µM; in experiment [10] it was over 100 µM.

`CCCCN(C)/N=N/c1nc[nH]c1C(N)=O`: the TGI in experiment [2], in experiment [3], in experiment [4], in [5], in [6] and in experiment [7] was over 100 µM throughout. The TGI in [8], in experiment [9] and in experiment [10] was over 100 µM each time.

Take `C=C1CC(C)(c2cccc(Nc3nc4ccccc4c4occc34)c2)OC1=O` (centres undefined): the concentration for total growth inhibition (TGI) in experiment [1] amounted to 19.6 µM; in [2] it was 17.6 µM; in experiment [3] it was 5.38 µM; in experiment [4], 16.6 µM; in experiment [5], 39.1 µM; in experiment [7] it was 33.8 µM. Also, the total growth inhibition concentration (TGI) in experiment [8] turned out to be 20.4 µM; in experiment [9], 18.3 µM; in experiment [10], 3.47 µM.

In the case of `CCOC(=O)c1cc(Br)c(-c2onc(C)c2Br)[nH]1`, the concentration for total growth inhibition (TGI) in experiment [2], in [3], in experiment [4], in experiment [5], in [6] and in experiment [7] was over 100 µM throughout. The TGI in experiment [8], in experiment [9] and in [10] was over 100 µM in each case.

For `COC(=O)Cn1cnc2c(Cl)nc(Nc3ccccc3)nc21`, the TGI in experiment [1], in [2], in experiment [3], in [4], in experiment [5] and in [7] was over 100 µM each time. The TGI in experiment [8], in experiment [9] and in [10] was over 100 µM in each case.
